{
  "source": "patent US20150018417A1",
  "about": "“FATTY ACIDS AS ANTI-INFLAMMATORY AGENTS” (University of Pittsburgh - Of the Commonwealth System of …, priority 2012, published 2015)",
  "key": {"RAW264.7 cells [1]": {"tested_on": "RAW264.7 cells", "assay": "EFAD formation in activated RAW264.7 cells treated with inhibitors", "format": "cell-based, murine"}, "[2]": {"tested_on": "inducible nitric oxide synthase (iNOS)", "assay": "iNOS induction and nitrite accumulation in activated RAW264.7 cells", "format": "cell-based, murine", "conditions": "RAW264.7 activated with Kdo2 and IFNγ", "experimental": "(§1) FIG. 11 illustrates modulation of anti-oxidant and inflammatory responses by 17-oxoDHA and 17-oxoDPA. RAW264.7 cells were treated with increasing concentration of 17-oxoDHA and 17-oxoDPA. (a) Cells were harvested 1 h after treatment and Nrf2 levels were quantified in nuclear extracts, (b) Cells were harvested 18 h after treatment and HO—I and Nqol (upper band) levels were measured by western blot, (c, d) RAW264.7 cells were treated with increasing concentration of 17-oxoDHA and 17-oxoDP A for 6 h and Kdo2+IFNγ were added. Samples were collected at 12 h. IL-6, MCP-I and IL-IO levels were measured in the cell media by Quantikine ELISA Kit (R&D Systems) and normalized by the total protein content (c); Nitrite levels were measured in the cell media and normalized by the total protein content and iNOS and Cox-2 levels were measured in total cell lysates (d); (e) PPARγ beta-lactamase reporter assays were performed for Rosiglitazone, 17-OxoDPA, 17-OxoDHA, 15d-PGJ2, 17-hydroxyDHA, DPA, and DHA with concentrations ranging from 0.5-10,000 nM.\nFor activation experiments RAW 264.7 cells were seeded, incubated overnight, and treated at approximately 80% confluence with the indicated compounds 47. Non-activated controls were treated with vehicle alone. During activation, cells were maintained in an activation medium (SMEM) of Minimum Essential Medium Eagle (Cellgro, 17-305)+2% FBS supplemented with L-glutamine (584 mg/L), Na-pyruvate (110 mg/L) and Hepes (3.57 g/L, pH 7.4). For inhibition studies, inhibitors were added to the medium at the time of activation and MTT assays were used to confirm cell viability. Cells were harvested 20 h post activation (unless otherwise indicated) in 50 mM phosphate buffer (pH 7.4) and snap frozen in liquid N2. […]\n(§2) Protein concentrations of samples were measured by BCA assay (Pierce). […] Actin (detected by Sigma A2066) was used as loading control. […]\n(§3) Total nitrite and nitrate concentration was measured in cell culture media by Griess reaction using the Nitrate/Nitrite Colorimetric Assay Kit (Cayman Chemical)."}, "GAPDH": {"biological_target": "GAPDH (Oryctolagus cuniculus, UniProt P46406)", "sequence (P46406 whole entry)": "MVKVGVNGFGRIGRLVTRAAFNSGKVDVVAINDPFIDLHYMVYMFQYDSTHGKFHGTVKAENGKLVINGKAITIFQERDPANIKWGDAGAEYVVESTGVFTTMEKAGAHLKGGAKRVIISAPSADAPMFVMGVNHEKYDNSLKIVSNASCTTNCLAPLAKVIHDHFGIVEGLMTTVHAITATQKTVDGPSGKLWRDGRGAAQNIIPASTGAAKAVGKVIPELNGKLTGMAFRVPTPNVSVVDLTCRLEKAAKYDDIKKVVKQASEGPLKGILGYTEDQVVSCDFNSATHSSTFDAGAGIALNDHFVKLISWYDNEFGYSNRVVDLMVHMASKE", "assay": "In vitro alkylation of GAPDH, mass spectrometric analysis", "format": "biochemical, rabbit", "text": "FIG. 21 illustrates the mass spectrometric analysis of an in vitro reaction of GAPDHvith EFAD-2. Four residues were detected and confirmed-as being targets for EfAD-2 in treated rabbit GAPDH. The peptides were alkylated as Cys244 (a), His163 (b), Cys149 (c) and His328 (d). Upper panels show EFAD-2 modified peptides and lower panels show spectra from corresponding native peptide.\nTo more specifically test the binding of EFADs to nucleophilic residues in proteins, we tested whether GAPDH was alkylated by EFADs. This enzyme is a well-characterized target for electrophiles and becomes easily inactivated by nitrosylation, oxidation or nucleophilic addition."}, "Nrf2": {"tested_on": "Nrf2", "assay": "Nrf2 nuclear accumulation and HO-1/Nqo1 expression, western blot", "format": "cell-based, murine", "conditions": "RAW264.7; Nrf2 at 1 h, HO-1/Nqo1 at 18 h", "experimental": "as §1\nAs described above, compounds of the invention can react with biological thiols to form reversible covalent adducts. […]\nas §2"}, "RAW264.7 cells [3]": {"tested_on": "RAW264.7 cells", "assay": "Nitrite levels in cell media of activated RAW264.7 cells (Griess reaction)", "format": "cell-based, murine", "conditions": "6 h pretreatment, then Kdo2+IFNγ, 12 h", "experimental": "as §1\nFor activation experiments RAW 264.7 cells were seeded, incubated overnight, and treated at approximately 80% confluence with the indicated compounds 47. […]\nas §3"}, "RAW264.7 cells [4]": {"tested_on": "RAW264.7 cells", "assay": "Cytokine levels (IL-6, MCP-I, IL-10) in activated RAW264.7 cells, ELISA", "format": "cell-based, murine", "experimental": "as §1\nTo investigate whether the 17-oxo DHA and 17-oxo DPA played a role in modulating the inflammatory response generated by Kdo2 and IFNγ, the present investigators study the change in levels of cytokines, IL-6, MCP-I and IL-IO in cells exposed to increasing doses of 17-oxo DHA and 17-oxo DPA. […]"}, "PPARγ": {"biological_target": "T1, PPARγ (Homo sapiens, UniProt P37231)", "T1 sequence (P37231 1-505)": "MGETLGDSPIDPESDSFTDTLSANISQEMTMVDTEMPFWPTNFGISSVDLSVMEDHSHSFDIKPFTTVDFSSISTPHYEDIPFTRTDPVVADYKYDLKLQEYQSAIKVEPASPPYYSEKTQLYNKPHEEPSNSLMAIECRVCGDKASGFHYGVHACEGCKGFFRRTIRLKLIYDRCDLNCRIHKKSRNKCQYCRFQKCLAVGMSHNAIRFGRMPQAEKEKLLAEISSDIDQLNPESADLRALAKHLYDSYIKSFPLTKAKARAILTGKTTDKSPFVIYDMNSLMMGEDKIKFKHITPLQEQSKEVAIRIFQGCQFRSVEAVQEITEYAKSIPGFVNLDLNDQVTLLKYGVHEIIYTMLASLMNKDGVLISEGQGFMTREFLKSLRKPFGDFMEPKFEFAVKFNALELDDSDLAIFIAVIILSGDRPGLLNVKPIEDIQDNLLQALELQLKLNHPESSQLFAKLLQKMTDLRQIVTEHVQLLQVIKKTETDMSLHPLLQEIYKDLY", "assay": "PPARγ beta-lactamase reporter assay", "format": "cell-based", "conditions": "concentrations 0.5-10,000 nM, read-out: EC50 PPARγ activation", "experimental": "as §1\nThe observation that oxo-fatty acids, such as 15d-PGJ230, 5-oxoEPA, 6-oxoOTE, and the synthetic 4-oxoDHA31, covalently bind and activate the peroxisome proliferator-activated receptor γ (PPARγ), prompted the present inventors to test the ability of 17-oxoDPA, and 17-oxoDHA to activate PPARγ. Thus PPARγ beta-lactamase reporter assays were performed using Roziglitazone, a potent synthetic PPARγ agonist, was used in the assay as positive control."}, "[5]": {"conditions": "RAW264.7 activated with Kdo2 and IFNγ, inhibitor added at activation, 20 h"}},
  "note": "“Also recorded” adds a separate entry of the source.",
  "data": [
    {"smiles": "CS(=O)(=O)Nc1ccc([N+](=O)[O-])cc1OC1CCCCC1", "note": "[NS-398]", "values": [
      {"measurement": "effect on EFAD formation", "setting": "RAW264.7 cells [1]; [5]", "value": "abolished"}
    ]},
    {"smiles": "C=C1[C@@H](O)[C@@H]2O[C@]3(CC[C@H](/C=C/[C@@H](C)[C@@H]4CC(C)=C[C@@]5(O[C@H](C[C@@](C)(O)C(=O)O)CC[C@H]5O)O4)O3)CC[C@H]2O[C@@H]1[C@@H](O)C[C@H](C)[C@H]1O[C@@]2(CCCCO2)CC[C@H]1C", "note": "[OKA, okadaic acid]", "values": [
      {"measurement": "effect on EFAD formation", "setting": "RAW264.7 cells [1]; [5]", "value": "slight increase"}
    ]},
    {"smiles": "CC/C=C\\CC(=O)C=C/C=C\\C/C=C\\C/C=C\\C/C=C\\CCC(=O)O", "note": "[17-oxoDHA, 17-oxo-(4Z,7Z,10Z,13Z,15A,19Z)-docosa-4,7,10,13,15,19-hexanoic acid]", "values": [
      {"measurement": "iNOS induction and accumulation of nitrite in the cell media", "setting": "[2]", "value": "dose-dependent inhibition"},
      {"measurement": "adduct formation with GAPDH residues", "setting": "GAPDH", "value": "covalently bind Cys and His residues"},
      {"measurement": "Nrf2 nuclear accumulation and expression of HO-1 and Nqo1", "setting": "Nrf2", "value": "promoted dose-dependent Nrf2 nuclear accumulation; also recorded: induced the anti-oxidant response"},
      {"measurement": "reduction of nitrite production", "setting": "RAW264.7 cells [3]; 20 μM", "value": "−70", "unit": "%"},
      {"measurement": "IFNγ and LPS-induced cytokine production", "setting": "RAW264.7 cells [4]", "value": "inhibited"},
      {"measurement": "EC50", "setting": "PPARγ", "value": "~0.04", "unit": "µM"}
    ]},
    {"smiles": "COc1ccc2c(c1)c(CC(=O)O)c(C)n2C(=O)c1ccc(Cl)cc1", "note": "[Indomethacin]", "values": [
      {"measurement": "effect on EFAD formation", "setting": "RAW264.7 cells [1]; [5]", "value": "completely abolish"}
    ]},
    {"smiles": "CC/C=C\\CC(O)/C=C/C=C\\C/C=C\\C/C=C\\CCCCCC(=O)O", "note": "(stereo not shown) [17-OH-DPA, 17-OH(7Z,10Z,13Z,15A,19Z)-docosa-7,10,13,15,19-pentanoic acid, reference compound]", "values": [
      {"measurement": "EC50", "setting": "PPARγ", "value": "> 10", "unit": "µM"}
    ]},
    {"smiles": "CCCCCC#CCC#CCC#CCC#CCCCC(=O)O", "note": "[ETYA, Eicosatetraynoic acid]", "values": [
      {"measurement": "effect on EFAD formation", "setting": "RAW264.7 cells [1]; [5]", "value": "strongly inhibit"}
    ]},
    {"smiles": "CC/C=C\\CC(=O)C=C/C=C\\C/C=C\\C/C=C\\CCCCCC(=O)O", "note": "[17-oxoDPA, 17-oxo-(7Z,10Z,13Z,15A,19Z)-docosa-7,10,13,15,19-pentanoic acid]", "values": [
      {"measurement": "iNOS induction and accumulation of nitrite in the cell media", "setting": "[2]", "value": "dose-dependent inhibition"},
      {"measurement": "adduct formation with GAPDH residues", "setting": "GAPDH", "value": "covalently bind Cys and His residues"},
      {"measurement": "Nrf2 nuclear accumulation and expression of HO-1 and Nqo1", "setting": "Nrf2", "value": "promoted dose-dependent Nrf2 nuclear accumulation; also recorded: induced the anti-oxidant response"},
      {"measurement": "reduction of nitrite production", "setting": "RAW264.7 cells [3]; 25 μM", "value": "−70", "unit": "%"},
      {"measurement": "IFNγ and LPS-induced cytokine production", "setting": "RAW264.7 cells [4]", "value": "inhibited"},
      {"measurement": "EC50", "setting": "PPARγ", "value": "~0.04", "unit": "µM"}
    ]},
    {"smiles": "CC(C)c1ccc2c(c1)c(SC(C)(C)C)c(CC(C)(C)C(=O)O)n2Cc1ccc(Cl)cc1", "note": "[MK886]", "values": [
      {"measurement": "effect on EFAD formation", "setting": "RAW264.7 cells [1]; [5]", "value": "no significant effect"}
    ]},
    {"smiles": "O=C(O)Cc1ccccc1Nc1c(Cl)cccc1Cl", "note": "[diclofenac]", "values": [
      {"measurement": "effect on EFAD formation", "setting": "RAW264.7 cells [1]; [5]", "value": "completely abolish"}
    ]},
    {"smiles": "CC(C)Cc1ccc(C(C)C(=O)O)cc1", "note": "(racemic) [ibuprofen]", "values": [
      {"measurement": "inhibition of EFAD production", "setting": "RAW264.7 cells [1]; [5]", "value": "more than 80%"},
      {"measurement": "effect on EFAD-I formation", "setting": "RAW264.7 cells [1]; ibuprofen 100 μM, exception stated in the text", "value": "no significant effect"}
    ]},
    {"smiles": "CCCCCC=CC=C1C(=O)C=C[C@@H]1CC=CCCCC(=O)O", "note": "[15d-PGJ2, 15-deoxy-Δ (12,14)-prostaglandin J2, reference compound]", "values": [
      {"measurement": "EC50", "setting": "PPARγ", "value": "~0.025", "unit": "µM"}
    ]}
  ]
}
